The source of these data is US20250154152A1, “INHIBITORS OF NAEGLERIA FOWLERI” (Wisconsin Alumni Research Foundation, priority 2023, published 2025).

As a reminder, the EC50 is the concentration giving half of the maximal effect.

Each structure is given as a SMILES string.

For the first experiment, the system named is N. fowleri strain Nf69 (ATCC 30215) trophozoites. Kind of experiment: Determination of EC50 values against Naegleria fowleri (growth inhibition, CellTiter Glo, 48 h). The class given is cell-based. As to conditions: ATCC30215, 48 h, read-out: EC50 uM against N. fowleri. An outline of the steps: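 Axenic Nf69 trophozoites in Nelson's complete medium with 10% FBS exposed to compound, initially 20–0.375 μM, for 48 h at 37 °C, 5% CO2. Viability read by CellTiter-Glo luminescence; % growth inhibition versus controls, triplicate averages fitted for EC50, with lower ranges used for very potent compounds.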
A general note: In ATP-based viability assays light output follows the ATP content of the culture.
Turning to `CN1CCC[C@H]2c3nc4ccc(Cl)cc4c(=O)n3CC[C@@H]21` [trans-10b-ent-2, (4aS,13bR)-10-chloro-4-methyl-1,2,3,4,4a,5,6,13b-octahydro-8H-[1,6]naphthyridino[5,6-b]quinazolin-8-one], the EC50 fell in the range of 1 to 10 µM. As to `CC(C)OCCN1CCC[C@@H]2c3nc4cc(Cl)c(Cl)cc4c(=O)n3CC[C@H]21` (racemic) [trans-7z, (±)-(4aR,13bS)-10,11-dichloro-4-(2-isopropoxyethyl)-1,2,3,4,4a,5,6,13b-octahydro-8H-[1,6]naphthyridino[5,6-b]quinazolin-8-one], the EC50 is 0.0001 to 0.1 µM.

The same experiment, now with this note: ATCC30215, N. fowleri Nf69 trophozoites, 48 h culture, 37° C., CellTiter Glo luminescence, read-out: EC50 uM against N. fowleri.
Consider `CN1CCC[C@@H]2c3nc4ccc(F)cc4c(=O)n3CC[C@H]21` (racemic) [trans-5f, (±)-(4aR,13bS)-10-fluoro-4-methyl-1,2,3,4,4a,5,6,13b-octahydro-8H-[1,6]naphthyridino[5,6-b]quinazolin-8-one], for which the EC50 is above 10 µM. The same measure, in the same setting: with `CN1CCO[C@H]2c3nc4ccc(Cl)cc4c(=O)n3CC[C@H]21` (racemic) [cis-5w, (±)-(4aR,13bR)-10-chloro-4-methyl-3,4,4a,5,6,13b-hexahydro-[1,4]oxazino[2′,3′:3,4]pyrido[2,1-b]quinazolin-8(2H)-one] the figure was above 10 µM; with `COc1cc2nc3n(c(=O)c2cc1C#N)CC[C@@H]1[C@@H]3CCCN1CC1COC1` (racemic) [trans-7kk, (±)-(4aR,13bS)-11-methoxy-4-(oxetan-3-ylmethyl)-8-oxo-2,3,4,4a,5,6,8,13b-octahydro-1H-[1,6]naphthyridino[5,6-b]quinazoline-10-carbonitrile], 0.1 to 1 µM; with `O=c1c2cc(Cl)c(Cl)cc2nc2n1CC[C@@H]1[C@@H]2CCCN1Cc1ccccn1` (racemic) [trans-7o, (±)-(4aR,13bS)-10,11-dichloro-4-(pyridin-2-ylmethyl)-1,2,3,4,4a,5,6,13b-octahydro-8H-[1,6]naphthyridino[5,6-b]quinazolin-8-one], 1 to 10 µM.

Take `Cc1ccc2nc3n(c(=O)c2c1)CC[C@@H]1[C@H]3CCCN1C` (racemic) [cis-5h, (±)-(4aR,13bR)-4,10-dimethyl-1,2,3,4,4a,5,6,13b-octahydro-8H-[1,6]naphthyridino[5,6-b]quinazolin-8-one]: the EC50 fell in the range of 1 to 10 µM. As to `Cc1ccc2nc3n(c(=O)c2c1)CC[C@@H]1[C@@H]3CCCN1C` (racemic) [trans-5h, (±)-(4aR,13bS)-4,10-dimethyl-1,2,3,4,4a,5,6,13b-octahydro-8H-[1,6]naphthyridino[5,6-b]quinazolin-8-one], the EC50 lay in the range of 1 to 10 µM.

On to `CN(C)CCN1CCC[C@@H]2c3nc4cc(Cl)c(Cl)cc4c(=O)n3CC[C@H]21` (racemic) [trans-7oo, (±)-(4aR,13bS)-10,11-dichloro-4-(2-(dimethylamino)ethyl)-1,2,3,4,4a,5,6,13b-octahydro-8H-[1,6]naphthyridino[5,6-b]quinazolin-8-one], for which the EC50 lay in the range of 0.1 to 1 µM. With `CN1CCC[C@H]2c3nc4ccc(Br)cc4c(=O)n3CC[C@H]21` (racemic) [cis-5e, (±)-(4aR,13bR)-10-bromo-4-methyl-1,2,3,4,4a,5,6,13b-octahydro-8H-[1,6]naphthyridino[5,6-b]quinazolin-8-one], the EC50 was 0.1 to 1 µM. On the same count and under the same terms, with `CN(C)CCn1c([C@@H]2CCCN(CC3COC3)C2)nc2cc(Cl)c(Cl)cc2c1=O` [Compound R-14l, (R)-6,7-dichloro-3-(2-(dimethylamino)ethyl)-2-(1-(oxetan-3-ylmethyl)piperidin-3-yl)quinazolin-4(3H)-one] the figure was above 10 µM; with `Cn1c([C@@H]2CCCN(CC3COC3)C2)nc2cc(F)ccc2c1=O` [Compound R-14r, (R)-7-fluoro-3-methyl-2-(1-(oxetan-3-ylmethyl)piperidin-3-yl)quinazolin-4(3H)-one], above 10 µM. For the molecule `O=c1c2ccccc2nc2n1CC[C@@H]1[C@H]2CCN1Cc1ccccc1` (racemic) [cis-5ff, (±)-(3aR,12bR)-3-benzyl-2,3,3a,4,5,12b-hexahydropyrrolo[3′,2′:3,4]pyrido[2,1-b]quinazolin-7(1H)-one], the EC50 is above 10 µM. `COc1ccc2nc3n(c(=O)c2c1)CC[C@@H]1[C@@H]3CCCN1C` (racemic) [trans-5g, (±)-(4aR,13bS)-10-methoxy-4-methyl-1,2,3,4,4a,5,6,13b-octahydro-8H-[1,6]naphthyridino[5,6-b]quinazolin-8-one]: the EC50 is 1 to 10 µM. For the molecule `CN1CCC[C@@H]2c3nc4ccc(C(F)(F)F)cc4c(=O)n3CC[C@H]21` [trans-10c-ent-1, (4aR,13bS)-4-methyl-10-(trifluoromethyl)-1,2,3,4,4a,5,6,13b-octahydro-8H-[1,6]naphthyridino[5,6-b]quinazolin-8-one], the EC50 was in the range of 0.1 to 1 µM. Turning to `O=c1c2cc(Cl)c(Cl)cc2nc2n1CC[C@@H]1[C@@H]2CCCN1Cc1cnccn1` (racemic) [trans-7x, (±)-(4aR,13bS)-10,11-dichloro-4-(pyrazin-2-ylmethyl)-1,2,3,4,4a,5,6,13b-octahydro-8H-[1,6]naphthyridino[5,6-b]quinazolin-8-one], the EC50 is 0.0001 to 0.1 µM. Still for that read-out and setting: next, `CN1CCC[C@H]2c3nc4ccccc4c(=O)n3CC[C@H]21` (racemic) [cis-5a, (±)-(4aR,13bR)-4-methyl-1,2,3,4,4a,5,6,13b-octahydro-8H-[1,6]naphthyridino[5,6-b]quinazolin-8-one]: above 10 µM; `O=c1c2cc(Cl)c(Cl)cc2nc2n1CC[C@@H]1[C@@H]2CCCN1Cc1ccccc1` (racemic) [trans-7w, (±)-(4aR,13bS)-4-benzyl-10,11-dichloro-1,2,3,4,4a,5,6,13b-octahydro-8H-[1,6]naphthyridino[5,6-b]quinazolin-8-one]: 0.1 to 1 µM; `CN1CCC[C@@H]2c3nc4cc(F)ccc4c(=O)n3CC[C@H]21` (racemic) [trans-5m, (±)-(4aR,13bS)-11-fluoro-4-methyl-1,2,3,4,4a,5,6,13b-octahydro-8H-[1,6]naphthyridino[5,6-b]quinazolin-8-one]: above 10 µM. `CN1CCC[C@H]2c3nc4cnccc4c(=O)n3CC[C@H]21` (racemic) [cis-5p, (±)-(4aR,13bR)-4-methyl-1,2,3,4,4a,5,6,13b-octahydro-8H-pyrido[3′,4′:4,5]pyrimido[2,1-f][1,6]naphthyridin-8-one]: the EC50 is above 10 µM.

Turning to `CC(C)OCCN1CCC[C@@H](c2nc3cc(Cl)c(Cl)cc3c(=O)n2C)C1` [Compound R-14aa, (R)-6,7-dichloro-2-(1-(2-isopropoxyethyl)piperidin-3-yl)-3-methylquinazolin-4(3H)-one], the half-maximal effective concentration (EC50) is 1 to 10 µM. Same read-out and setting: with `COc1cc2nc3n(c(=O)c2cc1Cl)CC[C@@H]1[C@@H]3CCCN1CC(C)C` (racemic) [trans-7ee, (±)-(4aR,13bS)-10-chloro-4-isobutyl-11-methoxy-1,2,3,4,4a,5,6,13b-octahydro-8H-[1,6]naphthyridino[5,6-b]quinazolin-8-one] the figure was 0.1 to 1 µM; with `Cn1c([C@H]2CCCN(CC3CCOCC3)C2)nc2cc(Cl)c(Cl)cc2c1=O` [Compound S-14c, (S)-6,7-dichloro-3-methyl-2-(1-((tetrahydro-2H-pyran-4-yl)methyl)piperidin-3-yl)quinazolin-4(3H)-one], above 10 µM; with `COc1cc2nc3n(c(=O)c2cc1Cl)CC[C@H]1NCCC[C@H]31` (racemic) [trans-6c, (±)-(4aR,13bS)-10-chloro-11-methoxy-1,2,3,4,4a,5,6,13b-octahydro-8H-[1,6]naphthyridino[5,6-b]quinazolin-8-one], 1 to 10 µM.
